# Data taken from patent publication US20230103631A1, “PEPTIDES AS SELECTIVE GIP RECEPTOR AGONISTS” (Sanofi, priority 2020, published 2023).
# *1 amine or outer side, *2 acyl side, *3 side chain or, on linkers, in order; H or OH if unused. Where a SMILES comes first, the peptide text is derived from it. Side-chain parts run from the residue outwards. [ ]: non-standard residue; d: D form. The star is where a group is joined. C18 diacid = O=C(O)CCCCCCCCCCCCCCCCC(=O)*; γGlu = O=C(O)[C@H](CCC(=O)[*:2])N[*:1]; AEEA = NCCOCCOCC(=O)O; Aib = CC(C)(N)C(=O)O
# How the values were obtained:
# Assay type in all cases: in vivo
# [1] = Pharmacokinetic evaluation in rats; details: male, SD, rat, plasma; for clearance: read-out: CI (converted)
# Description: (§1) Compounds were administered in a suitable buffer system, e.g. PBS buffer solution at pH7.4 or DPBS solution at concentrations of 0.05, 0.1, 0.5 or 1 mg/ml depending on dose, species and administration volume.
# (§2) Male SD rats were dosed 0.25 mg/kg, 0.5 mg/kg or 1 mg/kg intravenously (i.v.) or subcutaneously (s.c.). Blood samples were collected after 0.08, 0.25, 0.5, 1, 2, 4, 8, 24, 32, and 48 h post i.v. application and 0.25, 0.5, 1, 2, 4, 8, 24, 32, and 48 h post s.c. application, respectively. Plasma samples were analyzed after protein precipitation via liquid chromatography mass spectrometry (LC/MS). PK parameters and half-life were calculated using Phoenix-WinNonlin 8.1 using a non-compartmental model and linear trapezoidal interpolation calculation.
# (§3) Pharmacokinetic profiles were determined as described in Methods.
# [2] = Pharmacokinetic evaluation in mice; details: female, C57Bl/6, mouse, plasma
# Description: as §1
# as §2, with “Female C57Bl/6 mice” for “Male SD rats”, “The mice were sacrificed, and blood” for “Blood”
# as §3
# [3] = tested on: C57Bl/6 mice; experiment: Intraperitoneal glucose tolerance test (ipGTT) after s.c. treatment; details: for Incremental blood glucose concentration AUCi / Blood glucose concentration AUC: mean ± SEM; for Incremental blood glucose concentration AUCi: vehicle +4.93 ± 0.324; for Blood glucose concentration AUC: vehicle +22.15 ± 0.662
# Description: Healthy, normoglycemic male C57Bl/6NCrl mice were ordered in an age of 9-10 weeks with an approximate body weight (BW) of 24-26 g at Charles River Laboratories Deutschland GmbH, 97633 Sulzfeld, Germany. Mice were shipped grouped housed (N=4 per cage), acclimatized for one week and remained grouped housed throughout the entire study. Mice were housed under vivarium conditions that included a 12 h light/dark cycle (light phase 06:00 AM-06:00 PM), mean room temperature of 22±2° C. and a relative mean humidity of 55±10%. All animals had free access to food (Ssniff R/M-H diet) and water prior to study start.
# The primary objective of the study was to investigate the compound-induced lowering of the blood glucose excursion and improvement of glucose tolerance in a mouse ipGTT setting and therefore the primary parameters included blood glucose, delta blood glucose (normalized to the time point just prior to the i.p. glucose challenge, t=0 h) and their respective calculated area under curve (AUC) values. The study was performed as an acute, single dosing study with 6 groups and the male animals were randomly divided to groups of 7-8 mice per group. Dose-dependent pharmacodynamic blood glucose lowering efficacy of the GIPR agonist was analyzed with s.c. injections 6 h before the i.p. glucose load in the dose range from 3 up to 100 nmol/kg and compared to the vehicle group as well as the semaglutide positive control at a dose of 10 nmol/kg.
# In more detail, mice were fed overnight and on the following morning brought to the lab with food removed but ad libitum access to water. Blood samplings (5 μl) were performed at: −6.5, −0.5, 0, 0.17, 0.5, 1, 1.5, 2 and 3 h before and after the glucose bolus of 1 g glucose per kg BW i.p. given at time point t=0 h. On time point t=0.17 h an additional K-EDTA plasma sample from 60-80 μl blood was taken for plasma insulin analysis. Blood was withdrawn from the tip of the tail. The GIPR agonist and semaglutide were dissolved in 10 mM phosphate buffer pH 7.4 with 2.3% glycerol and 0.01% polysorbat 20 (vehicle) and s.c. treatment was performed −6 h before the glucose load (t=0 h) using an injection volume of 5 ml/kg. The injection solutions were freshly prepared prior to the experiment using sterile filtered vehicle solution.
# Blood glucose was determined enzymatically (Gluco-quant® Glucose/HK kit on Roche/Hitachi 912). Plasma insulin was determined using a mouse/rat insulin sandwich immunoassay kit from Meso Scale Discovery.
# All data were collected using Microsoft Excel. None of the data were collected online. The results are expressed as means±standard error of the mean (SEM). As primary study parameters, blood glucose, baseline (time point t=0 h) subtracted delta blood glucose and their respective calculated area under curve (AUC) values were determined. The respective AUC data were calculated using the trapezoid rule for the time period t=0 h until t=2 h.
# The statistical analysis of the ipGTT blood glucose excursion data response following subcutaneous compound or vehicle treatment was performed on the calculated AUC values of blood glucose raw data as well as the calculated AUC values for baseline subtracted delta blood glucose data. In a first step the Levene's test was used to test for equality of variances between groups. Where Levene's test was significant (p s 0.05), a rank transformation of the calculated AUC data was applied to stabilize the variances before ANOVA analysis was conducted. Where Levene's test was not significant (p>0.05) ANOVA was conducted without prior rank transformation. In a second step a One-way ANOVA analysis for factor treatment followed by Dunnett's multiple comparisons test vs. vehicle group was used to test for statistical differences. Different levels of significance were defined as *=p<0.05, **=p<0.001, ***=p<0.0001. All analyses were performed using SAS (version 9.4) under Linux via the interface software EverSt@t V6.1. […]
# [4] = 3 nmol/kg s.c. 6 h before i.p. glucose load
# [5] = 10 nmol/kg s.c. 6 h before i.p. glucose load
# [6] = 30 nmol/kg s.c. 6 h before i.p. glucose load
# [7] = 100 nmol/kg s.c. 6 h before i.p. glucose load
smiles,measurement,setting,value
"CC[C@H](C)[C@H](NC(=O)[C@H](CCCNC(=N)N)NC(=O)[C@H](CC(=O)O)NC(=O)[C@H](CCCCNC(=O)COCCOCCNC(=O)COCCOCCNC(=O)CC[C@H](NC(=O)CCCCCCCCCCCCCCCCC(=O)O)C(=O)O)NC(=O)C(C)(C)NC(=O)[C@@H](NC(=O)[C@H](CO)NC(=O)[C@H](CC(C)C)NC(=O)[C@H](CC(=O)O)NC(=O)[C@H](CO)NC(=O)[C@@H](NC(=O)[C@H](Cc1ccccc1)NC(=O)[C@@H](NC(=O)CNC(=O)[C@H](CCC(=O)O)NC(=O)C(C)(C)NC(=O)[C@@H](N)Cc1ccc(O)cc1)[C@@H](C)O)[C@@H](C)CC)[C@@H](C)CC)C(=O)N[C@@H](Cc1c[nH]cn1)C(=O)N[C@@H](CCC(N)=O)C(=O)NC(C)(C)C(=O)N[C@@H](CCC(=O)O)C(=O)N[C@@H](Cc1ccccc1)C(=O)N[C@H](C(=O)N[C@@H](CCC(=O)O)C(=O)N[C@@H](Cc1c[nH]c2ccccc12)C(=O)N[C@@H](CC(C)C)C(=O)N[C@@H](CC(C)C)C(=O)N[C@@H](C)C(=O)N[C@@H](CCC(N)=O)C(=O)NCC(=O)N1CCC[C@H]1C(=O)N[C@@H](CO)C(=O)N[C@@H](CO)C(=O)NCC(=O)N[C@@H](C)C(=O)N1CCC[C@H]1C(=O)N1CCC[C@H]1C(=O)N1CCC[C@H]1C(=O)N[C@@H](CO)C(N)=O)[C@@H](C)CC [SEQ ID NO: 4, H2N-Y-Aib-E-G-T-F-I-S-D-I-S-I-Aib-K[{AEEA}2-gGlu-C18OH]-D-R-I-H-Q-Aib-E-F-I-E-W-I-L-A-Q-G-P-S-S-G-A-P-P-P-S-NH2] (H-Y[Aib]EGTFISDLSI[Aib]K([AEEA-AEEA-γGlu-C18 diacid])DRIHQ[Aib]EFIEWLLAQGPSSGAPPPS-NH2)",AUC(0-t),"[1]; iv, 0.25 mg/kg i.v.",50200 ng·h/mL
same,Cmax,"[1]; iv, 0.25 mg/kg i.v.",6890 ng/mL
same,half-life,"[1]; iv, 0.25 mg/kg i.v.",12.3 h
same,clearance,"[1]; iv, 0.25 mg/kg i.v.",4.68 mL/h/kg
same,AUC(0-t),"[1]; sc, 0.5 mg/kg s.c.",44400 ng·h/mL
same,Cmax,"[1]; sc, 0.5 mg/kg s.c.",1270 ng/mL
same,bioavailability,"[1]; sc, 0.5 mg/kg s.c.",52%
same,half-life,"[1]; sc, 0.5 mg/kg s.c.",16.5 h
"CC[C@H](C)[C@H](NC(=O)[C@H](Cc1ccccc1)NC(=O)[C@H](CCC(=O)O)NC(=O)[C@H](CCC(=O)O)NC(=O)[C@H](CCC(N)=O)NC(=O)[C@H](Cc1c[nH]cn1)NC(=O)[C@@H](NC(=O)[C@H](CCCNC(=N)N)NC(=O)[C@H](CC(=O)O)NC(=O)[C@H](CCCCNC(=O)COCCOCCNC(=O)COCCOCCNC(=O)CC[C@H](NC(=O)CCCCCCCCCCCCCCCCC(=O)O)C(=O)O)NC(=O)C(C)(C)NC(=O)[C@@H](NC(=O)[C@H](CO)NC(=O)[C@H](CC(C)C)NC(=O)[C@H](CC(=O)O)NC(=O)[C@H](CO)NC(=O)[C@@H](NC(=O)[C@H](Cc1ccccc1)NC(=O)[C@@H](NC(=O)CNC(=O)[C@H](CCC(=O)O)NC(=O)C(C)(C)NC(=O)[C@@H](N)Cc1ccc(O)cc1)[C@@H](C)O)[C@@H](C)CC)[C@@H](C)CC)[C@@H](C)CC)C(=O)N[C@@H](CCC(=O)O)C(=O)N[C@@H](Cc1c[nH]c2ccccc12)C(=O)N[C@@H](CC(C)C)C(=O)N[C@@H](CC(C)C)C(=O)N[C@@H](C)C(=O)N[C@@H](CCC(N)=O)C(=O)NCC(=O)N1CCC[C@H]1C(=O)N[C@@H](CO)C(=O)N[C@@H](CO)C(=O)NCC(=O)N[C@@H](C)C(=O)N1CCC[C@H]1C(=O)N1CCC[C@H]1C(=O)N1CCC[C@H]1C(=O)N[C@@H](CO)C(N)=O [SEQ ID NO: 9, H2N-Y-Aib-E-G-T-F-I-S-D-I-S-I-Aib-K[{AEEA}2-gGlu-C18OH]-DRIHQEEFIEWILAQGPSSGAPPPS-NH2] (H-Y[Aib]EGTFISDLSI[Aib]K([AEEA-AEEA-γGlu-C18 diacid])DRIHQEEFIEWLLAQGPSSGAPPPS-NH2)",AUC(0-t),"[2]; iv, 0.25 mg/kg i.v.",25700 ng·h/mL
same,Cmax,"[2]; iv, 0.25 mg/kg i.v.",3920 ng/mL
same,half-life,"[2]; iv, 0.25 mg/kg i.v.",8 h
same,clearance,"[2]; iv, 0.25 mg/kg i.v., read-out: CI (converted)",9.59 mL/h/kg
same,AUC(0-t),"[2]; sc, 0.5 mg/kg s.c.",42200 ng·h/mL
same,Cmax,"[2]; sc, 0.5 mg/kg s.c.",2190 ng/mL
same,bioavailability,"[2]; sc, 0.5 mg/kg s.c.",82%
same,half-life,"[2]; sc, 0.5 mg/kg s.c.",7.3 h
same,AUC(0-t),"[1]; iv, 0.25 mg/kg i.v.",54500 ng·h/mL
same,Cmax,"[1]; iv, 0.25 mg/kg i.v.",5600 ng/mL
same,half-life,"[1]; iv, 0.25 mg/kg i.v.",14.8 h
same,clearance,"[1]; iv, 0.25 mg/kg i.v.",4.19 mL/h/kg
same,AUC(0-t),"[1]; sc, 0.5 mg/kg s.c.",72900 ng·h/mL
same,Cmax,"[1]; sc, 0.5 mg/kg s.c.",2490 ng/mL
same,bioavailability,"[1]; sc, 0.5 mg/kg s.c.",73%
same,half-life,"[1]; sc, 0.5 mg/kg s.c.",16.9 h
same,Incremental blood glucose concentration AUCi,[3]; [4],+3.41 ± 0.520 mmol/L* 0-2 h
same,Blood glucose concentration AUC,[3]; [4],+21.07 ± 0.544 mmol/L* 0-2 h
same,Incremental blood glucose concentration AUCi,[3]; [5],+3.33 ± 0.210 mmol/L* 0-2 h
same,Blood glucose concentration AUC,[3]; [5],+19.28 ± 0.518 mmol/L* 0-2 h
same,Incremental blood glucose concentration AUCi,[3]; [6],+2.76 ± 0.268 mmol/L* 0-2 h
same,Blood glucose concentration AUC,[3]; [6],+18.20 ± 0.662 mmol/L* 0-2 h
same,Incremental blood glucose concentration AUCi,[3]; [7],+1.90 ± 0.158 mmol/L* 0-2 h
same,Blood glucose concentration AUC,[3]; [7],+14.81 ± 0.533 mmol/L* 0-2 h
same,i.p. glucose tolerance compared to the vehicle group,"[3]; single s.c. dose 3-100 nmol/kg, ipGTT in C57Bl/6 mice",significant and dose-dependent improvement
same,minimal effective dose (improvement of i.p. glucose tolerance),"[3]; single s.c. dose, ipGTT in C57Bl/6 mice",3 to 10 nmol/kg
